From patent US10105395B2, “Microvesicles (MVs) derived from adult stem cells for use in the therapeutic treatment of a tumor disease” (Fresenius Medical Care Deutschland GmbH, priority 2010, dated 2018)

How the values were obtained:
Format in all cases: cell-based, human
HepG2 cells = test: TUNEL apoptotic assay, MVs from MSCs; settings: 24 and 48 hours, compared to vehicle alone; doxorubicin 100 ng/ml
Description: (§1) HepG2, MCF-7, SKOV-3, KS cells, HUVECs or TECs were seeded at 8,000 cells/well into 96-well plated in DMEM (Sigma) with 10% FCS and in the presence of doxorubicin (100 ng/ml, Sigma) or different concentrations of MVs (10 and 30 μg/ml) pre-treated or not with RNase. Apoptosis was assessed by TUNEL assay (ApopTag Oncor, Gaithersburg, Md., USA). After 24 or 48 hours of treatment, the cells were washed with PBS, fixed in 1% paraformaldehyde pH 7.4 for 15 minutes at 4° C., washed twice in PBS and then post-fixed in pre-cooled ethanol-acetic acid 2:1 for 5 minutes at −20° C. The samples were treated with the enzyme terminal deoxynucleotidyl transferase (TdT). The cells were then treated with heated anti-digoxigenin conjugate with fluorescein and incubated for 30 minutes at room temperature. The samples were mounted in medium containing 1 μg/ml of propidium iodide and the cells analyzed by immunofluorescence. The results are expressed as the percentage of green fluorescence emitting cells (apoptotic cells) versus red fluorescence emitting cells (total cells).

[1] = system: KS cells (Kaposi's sarcoma cells); test: TUNEL apoptotic assay, MVs from MSCs; settings: 24 and 48 hours, compared to vehicle alone; doxorubicin 100 ng/ml
Description: as §1

HepG2 hepatoma cell line = test: TUNEL apoptosis assay, MVs from HLSCs; settings: MVs 30 μg/ml; vincristine 100 ng/ml; 24 hours
Description: Apoptosis was evaluated using the terminal dUTP nickend labeling assay (ApoTag; Oncor, Gaithersburg, Md.). Cells ([…]) were cultured in 96-well plate, suspended in phosphate-buffered saline (PBS) and fixed in 1% paraformaldehyde in PBS, pH 7.4, for 15 minutes at 4° C. followed by pre-cooled ethanol/acetic acid (2:1) for 5 minutes at −20° C. Cells were treated with terminal deoxynucleotide transferase enzyme and incubated in a humidified chamber for 1 hour at 37° C. and then treated with warmed fluorescein isothiocyanate-conjugated antidigoxigenin for 30 minutes at room temperature. After washing, samples were mounted in a medium containing […] of propidium iodide and the cells were analyzed by immunofluorescence.
The ability of HLSC-derived MVs to induce apoptosis on HepG2 was evaluated. Briefly, HepG2 were seeded at a density of 8,000 cells/well into 96-well plates in DMEM with 10% FCS and apoptosis was induced by culture in the absence of FCS, by treatment with vincristine (100 ng/ml), or doxorubicin (50 ng/ml), two mitotic inhibitors used in cancer chemotherapy, or by MV treatment (30 μg/ml). […] Apoptosis was evaluated using the TUNEL assay analysis at […].

Row | SMILES | apoptosis of HepG2 cells (Tunel assay) (HepG2 cells) | apoptosis of KS cells (Tunel assay) [1] | HepG2 apoptosis (TUNEL assay) (HepG2 hepatoma cell line)
1 | COc1cccc2c1C(=O)c1c(O)c3c(c(O)c1C2=O)C[C@@](O)(C(=O)CO)C[C@@H]3O[C@H]1C[C@H](N)[C@H](O)[C@H](C)O1 [doxorubicin] | apoptosis induced by doxorubicin | apoptosis induced by doxorubicin | –
2 | CC[C@]1(O)C[C@H]2CN(CCc3c([nH]c4ccccc34)[C@@](C(=O)OC)(c3cc4c(cc3OC)N(C=O)[C@H]3[C@@](O)(C(=O)OC)[C@H](OC(C)=O)[C@]5(CC)C=CCN6CC[C@]43[C@@H]65)C2)C1 [vincristine] | – | – | induced by vincristine
